Source: patent publication US20070031415A1, “Regulation of interaction between rapl and rap1” (priority 2002, published 2007)

Target: T1, binding between Rap1 and p30 (Homo sapiens, UniProt P62834+Q8WWW0)
T1 construct: made in house; 293T cells for Myc-p30 (crude lysate)
T1 sequence (P62834 1-184): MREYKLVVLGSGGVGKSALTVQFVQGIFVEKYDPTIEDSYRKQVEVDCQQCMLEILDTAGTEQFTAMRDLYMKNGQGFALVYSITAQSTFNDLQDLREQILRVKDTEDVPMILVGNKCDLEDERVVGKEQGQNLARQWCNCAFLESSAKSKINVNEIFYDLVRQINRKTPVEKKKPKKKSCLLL
T1 sequence (Q8WWW0 1-265 isoform Q8WWW0-2): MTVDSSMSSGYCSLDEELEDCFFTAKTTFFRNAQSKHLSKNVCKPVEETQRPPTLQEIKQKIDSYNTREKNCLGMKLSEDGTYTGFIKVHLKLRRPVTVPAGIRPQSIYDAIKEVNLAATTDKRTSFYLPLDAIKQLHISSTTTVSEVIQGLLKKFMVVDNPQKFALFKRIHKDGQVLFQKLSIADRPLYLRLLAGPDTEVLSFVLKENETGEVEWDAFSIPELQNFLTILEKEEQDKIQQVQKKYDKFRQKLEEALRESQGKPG
Test: Rap1-p30 binding inhibition assay (GST-Rap1 beads pull-down of Myc-p30 lysate, western blot)
Details: 1 μM compound, GTPγS-activated Rap1, reaction 4° C. 30 sec; FIG. 7
Experimental: For a plasmid for production of GST-Rap1 fusion protein, pGEX-3× (product of Amersham Pharmacia Biotech) was used. The Rap1 coding sequence represented by SEQ ID NO:1 was inserted between BamHI and EcoRI restriction enzyme sites of the vector. At this time, two nucleotide pair CC were added in front of the 5′ terminal ATG of the nucleotide sequence represented by SEQ ID NO:1 for frame adjustment. […] GGATCCCCATG . . . 3′. The obtained plasmid for production of GST-Rap1 fusion protein was transfected into E. coli. The E. coli with the inserted plasmid was cultured, and GST-Rap1 protein was produced within E. coli cells by inducing the protein production with 0.2 mM IPTG (isopropylthiogalactopyranoside) (30° C., 2 hours). The E. coli cells were recovered by centrifugation, solubilized in a lysis buffer (100 mM NaCl, 50 mM Tris-HCl (pH 7.5), 1% Triton X100, 2 mM MgCl2, 0.1 TIU/ml Aprotinin), and disrupted by sonication. The solution was centrifuged, and then glutathione Sepharose 4B beads (product of Amersham) was added to the obtained supernatant and reacted at 4° C. for one hour to prepare GST-Rap1 beads.
A plasmid of p30-Myc tag was introduced into 293T cells in 70% confluency by electroporation. […]
The bands visualized by exposing to the film for chemiluminescence were quantitated with use of image analyzing software (Win Roof, product of Mitani Corp.). […]

CCS(=O)(=O)Nc1ncc(C(F)(F)F)cc1NC(=O)C1CCCCC1.O.[Na] [compound 1, N-(2-ethylsulfonylamino-5-trifluoromethyl-3-pyridyl)cyclohexanecarboxamide monosodium salt monohydrate]
p30 band volume (brightness×area) of p30 bound to activated GST-Rap1, compared to group without addition: significantly lower
